{
  "source": "ChEMBL document CHEMBL1201862",
  "about": "“PubChem BioAssay data set” (2004)",
  "key": {"[1]": {"biological_target": "T1, V-type proton ATPase subunit c' (Saccharomyces cerevisiae S288c, UniProt P32842)", "T1 sequence (P32842 whole entry)": "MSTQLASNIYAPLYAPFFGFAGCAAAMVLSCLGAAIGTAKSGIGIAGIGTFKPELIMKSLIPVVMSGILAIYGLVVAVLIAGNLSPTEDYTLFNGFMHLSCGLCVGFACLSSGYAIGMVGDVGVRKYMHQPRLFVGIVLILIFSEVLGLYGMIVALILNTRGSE", "test": "Dose Response of Small Molecules that Regulate V-ATPase Proton Transport in Yeast using pHLuorin, Cherry Pick 1. [Related pubchem assays (depositor defined):AID504622]", "type": "functional"}, "[2]": {"biological_target": "T2, Rac GTPase-activating protein 1 (Homo sapiens, UniProt Q9H0H5)", "T2 sequence (Q9H0H5 whole entry)": "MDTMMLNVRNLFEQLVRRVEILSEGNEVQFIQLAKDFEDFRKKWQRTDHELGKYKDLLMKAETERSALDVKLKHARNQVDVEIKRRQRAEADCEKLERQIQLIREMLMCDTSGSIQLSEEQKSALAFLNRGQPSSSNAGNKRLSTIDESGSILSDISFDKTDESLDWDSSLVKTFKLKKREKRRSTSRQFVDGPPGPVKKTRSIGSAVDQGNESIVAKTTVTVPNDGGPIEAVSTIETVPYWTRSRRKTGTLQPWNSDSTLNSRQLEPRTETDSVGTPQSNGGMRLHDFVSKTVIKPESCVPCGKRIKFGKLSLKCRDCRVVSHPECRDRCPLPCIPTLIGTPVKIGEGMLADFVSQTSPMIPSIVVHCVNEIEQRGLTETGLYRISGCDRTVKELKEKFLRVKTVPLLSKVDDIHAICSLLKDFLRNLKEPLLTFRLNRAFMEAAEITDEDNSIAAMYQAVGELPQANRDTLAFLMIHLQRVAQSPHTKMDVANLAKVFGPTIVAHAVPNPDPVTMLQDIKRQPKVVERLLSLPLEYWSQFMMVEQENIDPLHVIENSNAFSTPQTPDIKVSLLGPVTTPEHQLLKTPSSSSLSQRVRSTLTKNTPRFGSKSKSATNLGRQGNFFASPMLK", "test": "MgcRacGAP GTPase-activating activity inhibitors, confirmation, biochemical, ADP Hunter fluorescence, primary and confirmatory (AID 624330)", "type": "functional"}, "[3]": {"test": "nonselective inhibitors of cellular cAMP signaling, dose response, counter-screen for MC4R biased antagonist project, cell-based, TR-FRET cAMP detection (AID 602305);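 note: U2OS cells stimulated with forskolin near its EC80 as the cAMP inducer; potency is for inhibition of forskolin-stimulated cAMP signaling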", "type": "functional"}, "[4]": {"biological_target": "T3, Kappa-type opioid receptor (Homo sapiens, UniProt P41145)", "T3 sequence (P41145 whole entry)": "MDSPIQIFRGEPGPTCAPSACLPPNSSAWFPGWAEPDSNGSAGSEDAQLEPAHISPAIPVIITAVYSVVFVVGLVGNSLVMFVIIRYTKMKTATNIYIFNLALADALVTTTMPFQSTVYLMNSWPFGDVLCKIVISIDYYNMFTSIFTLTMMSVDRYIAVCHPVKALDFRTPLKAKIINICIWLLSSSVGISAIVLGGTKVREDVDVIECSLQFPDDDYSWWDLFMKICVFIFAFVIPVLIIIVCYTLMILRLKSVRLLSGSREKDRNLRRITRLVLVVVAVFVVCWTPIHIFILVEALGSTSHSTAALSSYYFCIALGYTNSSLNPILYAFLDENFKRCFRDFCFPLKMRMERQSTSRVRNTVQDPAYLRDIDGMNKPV", "type": "functional"}, "[5]": {"biological_target": "T1, V-type proton ATPase subunit c'", "test": "Dose Response of Small Molecules that Regulate V-ATPase Proton Transport in Yeast using pHLuorin, Cherry Pick 2.", "type": "functional", "conditions": "read-out: EC50_MICROM"}, "[6]": {"biological_target": "T4, Delta-type opioid receptor (Homo sapiens, UniProt P41143)", "T4 sequence (P41143 whole entry)": "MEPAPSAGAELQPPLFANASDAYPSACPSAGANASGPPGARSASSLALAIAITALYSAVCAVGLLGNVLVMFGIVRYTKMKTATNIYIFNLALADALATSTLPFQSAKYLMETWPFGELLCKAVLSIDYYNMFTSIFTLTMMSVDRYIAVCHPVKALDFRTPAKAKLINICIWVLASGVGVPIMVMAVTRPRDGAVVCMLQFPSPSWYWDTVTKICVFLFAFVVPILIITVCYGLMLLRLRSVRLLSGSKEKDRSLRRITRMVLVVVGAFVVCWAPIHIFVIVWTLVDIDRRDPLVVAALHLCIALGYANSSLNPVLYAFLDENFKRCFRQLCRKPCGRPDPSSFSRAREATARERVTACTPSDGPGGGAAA", "test": "HTS Image-Based Screen for Antagonists of the DOR Receptor. [Related pubchem assays (depositor defined):AID1777, AID1785, AID1786, AID2133]", "type": "functional"}, "[7]": {"biological_target": "T5, Bifunctional protein GlmU (Mycobacterium tuberculosis, UniProt P9WMN3)", "T5 sequence (P9WMN3 whole entry)": "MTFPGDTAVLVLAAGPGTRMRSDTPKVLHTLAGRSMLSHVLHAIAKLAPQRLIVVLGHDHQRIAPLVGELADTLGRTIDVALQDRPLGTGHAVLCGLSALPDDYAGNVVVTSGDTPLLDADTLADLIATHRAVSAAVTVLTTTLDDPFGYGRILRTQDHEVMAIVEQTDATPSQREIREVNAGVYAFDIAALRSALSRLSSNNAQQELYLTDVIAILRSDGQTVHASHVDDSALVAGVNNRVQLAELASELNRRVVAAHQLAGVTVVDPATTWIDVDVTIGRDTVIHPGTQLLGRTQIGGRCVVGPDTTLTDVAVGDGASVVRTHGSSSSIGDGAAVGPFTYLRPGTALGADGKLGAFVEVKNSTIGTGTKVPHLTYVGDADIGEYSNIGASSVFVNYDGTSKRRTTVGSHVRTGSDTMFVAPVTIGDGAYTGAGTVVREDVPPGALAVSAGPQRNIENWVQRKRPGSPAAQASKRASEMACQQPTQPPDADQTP", "test": "Inhibitors of Mycobacterial Glucosamine-1-phosphate acetyl transferase (GlmU). Secondary screen.", "design": "species or system Mycobacterium tuberculosis H37Rv"}, "[8]": {"test": "control 3'UTR Renilla luciferase suppression, dose response, counter-screen for Shn3 inhibitor project, cell-based, Clone20-Shn3RL, cherry-picked (AID 624133)", "type": "functional"}, "[9]": {"biological_target": "Heat shock protein HSP 90-alpha (Homo sapiens, UniProt P07900)", "type": "functional, organism-based"}, "[10]": {"test": "Shn3 3'UTR reporter inhibitors, dose response, cell-based, Clone20 osteoblasts, firefly luciferase, cherry-picked (AID 624132);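 note: firefly luciferase luminescence from reporter carrying the Shn3 3'UTR in osteoblasts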", "type": "functional"}, "[11]": {"biological_target": "T6, Mannose-6-phosphate isomerase (Homo sapiens, UniProt P34949)", "T6 sequence (P34949 whole entry)": "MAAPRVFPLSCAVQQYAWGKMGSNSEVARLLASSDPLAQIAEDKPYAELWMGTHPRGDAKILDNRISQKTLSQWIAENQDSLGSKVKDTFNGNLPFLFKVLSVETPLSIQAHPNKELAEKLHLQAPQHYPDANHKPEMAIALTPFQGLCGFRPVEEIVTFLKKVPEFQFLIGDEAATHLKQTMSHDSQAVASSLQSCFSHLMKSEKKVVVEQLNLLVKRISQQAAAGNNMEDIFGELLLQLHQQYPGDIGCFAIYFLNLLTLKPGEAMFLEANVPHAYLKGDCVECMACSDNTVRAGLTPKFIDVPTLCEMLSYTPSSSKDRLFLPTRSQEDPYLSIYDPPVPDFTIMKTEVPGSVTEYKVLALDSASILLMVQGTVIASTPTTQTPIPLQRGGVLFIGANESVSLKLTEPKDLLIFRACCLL", "test": "inhibitors of human PMI, primary screen, biochemical, fluorescence intensity, coupled assay (AID 1209)"}, "[12]": {"biological_target": "T3, Kappa-type opioid receptor", "type": "functional", "remark": "listed apart in the source"}, "[13]": {"test": "HepG2 cell cytotoxicity, dose response, cytotoxicity control for Shn3 inhibitor project, CellTiter-Glo, cherry-picked (AID 624134)", "type": "functional, cell-based"}, "Escherichia coli [14]": {"system": "Escherichia coli", "test": "microbe, parasite or virus in culture"}, "[15]": {"biological_target": "T4, Delta-type opioid receptor", "test": "HTS Image-Based Screen for Agonists of the DOR Receptor. [Related pubchem assays (depositor defined):AID1777, AID1786, AID2133]", "type": "functional"}, "[16]": {"biological_target": "G-protein coupled receptor 35 (Homo sapiens, UniProt Q9HC97)", "sequence (Q9HC97 whole entry)": "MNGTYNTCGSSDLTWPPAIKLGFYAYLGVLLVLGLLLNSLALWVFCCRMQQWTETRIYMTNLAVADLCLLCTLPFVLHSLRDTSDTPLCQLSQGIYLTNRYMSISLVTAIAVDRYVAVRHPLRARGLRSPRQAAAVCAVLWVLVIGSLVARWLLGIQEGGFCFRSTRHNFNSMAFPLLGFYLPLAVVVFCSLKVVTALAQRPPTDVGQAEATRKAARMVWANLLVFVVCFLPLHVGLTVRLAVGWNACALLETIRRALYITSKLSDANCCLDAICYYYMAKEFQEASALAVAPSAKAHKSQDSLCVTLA", "test": "GPR35 antagonists blocking zaprinast-driven arrestin recruitment, primary screen, imaging, U2OS, beta-arrestin-GFP, zaprinast agonist (AID 2058);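 note: antagonist potency meaning inhibition of agonist-induced arrestin redistribution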", "type": "functional"}, "Melanocortin receptor 4": {"biological_target": "Melanocortin receptor 4 (Homo sapiens, UniProt P32245)", "sequence (P32245 whole entry)": "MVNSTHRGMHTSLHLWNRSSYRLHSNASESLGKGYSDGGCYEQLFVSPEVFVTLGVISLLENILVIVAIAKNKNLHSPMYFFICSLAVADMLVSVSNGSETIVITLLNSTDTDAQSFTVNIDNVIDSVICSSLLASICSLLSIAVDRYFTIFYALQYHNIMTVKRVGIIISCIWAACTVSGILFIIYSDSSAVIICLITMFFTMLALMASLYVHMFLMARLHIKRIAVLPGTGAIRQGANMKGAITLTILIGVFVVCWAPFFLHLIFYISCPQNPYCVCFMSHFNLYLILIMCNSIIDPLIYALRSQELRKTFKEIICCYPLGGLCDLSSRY", "test": "MC4R antagonist potency on cAMP, dose response, cell-based, TR-FRET, biased antagonists (AID 602298);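 note: antagonist potency against agonist-stimulated cAMP production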", "type": "functional"}, "Mu-type opioid receptor": {"biological_target": "Mu-type opioid receptor (Homo sapiens, UniProt P35372)", "sequence (P35372 whole entry)": "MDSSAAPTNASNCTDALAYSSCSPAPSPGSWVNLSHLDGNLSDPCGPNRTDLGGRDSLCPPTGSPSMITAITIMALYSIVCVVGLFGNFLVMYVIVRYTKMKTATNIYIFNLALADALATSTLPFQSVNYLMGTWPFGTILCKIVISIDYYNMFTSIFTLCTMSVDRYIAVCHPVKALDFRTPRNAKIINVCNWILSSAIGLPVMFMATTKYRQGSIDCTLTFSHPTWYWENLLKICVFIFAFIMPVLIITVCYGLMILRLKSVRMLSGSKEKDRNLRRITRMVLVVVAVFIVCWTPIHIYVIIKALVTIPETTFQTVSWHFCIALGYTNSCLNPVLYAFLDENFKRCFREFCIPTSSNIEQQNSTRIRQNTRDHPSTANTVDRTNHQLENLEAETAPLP", "test": "HTS Image-Based Screen for Agonists of the MOR Receptor. [Related pubchem assays (depositor defined):AID1777, AID1785, AID1786, AID2133]", "type": "functional"}, "[17]": {"test": "HeLa cell cytotoxicity, dose response, cytotoxicity control for MgcRacGAP inhibitor project (AID 624300)", "type": "functional"}, "Escherichia coli [18]": {"system": "Escherichia coli", "test": "microbe, parasite or virus in culture", "remark": "listed apart in the source"}, "[19]": {"biological_target": "Cell division cycle 7-related protein kinase (Homo sapiens, UniProt O00311)", "sequence (O00311 whole entry)": "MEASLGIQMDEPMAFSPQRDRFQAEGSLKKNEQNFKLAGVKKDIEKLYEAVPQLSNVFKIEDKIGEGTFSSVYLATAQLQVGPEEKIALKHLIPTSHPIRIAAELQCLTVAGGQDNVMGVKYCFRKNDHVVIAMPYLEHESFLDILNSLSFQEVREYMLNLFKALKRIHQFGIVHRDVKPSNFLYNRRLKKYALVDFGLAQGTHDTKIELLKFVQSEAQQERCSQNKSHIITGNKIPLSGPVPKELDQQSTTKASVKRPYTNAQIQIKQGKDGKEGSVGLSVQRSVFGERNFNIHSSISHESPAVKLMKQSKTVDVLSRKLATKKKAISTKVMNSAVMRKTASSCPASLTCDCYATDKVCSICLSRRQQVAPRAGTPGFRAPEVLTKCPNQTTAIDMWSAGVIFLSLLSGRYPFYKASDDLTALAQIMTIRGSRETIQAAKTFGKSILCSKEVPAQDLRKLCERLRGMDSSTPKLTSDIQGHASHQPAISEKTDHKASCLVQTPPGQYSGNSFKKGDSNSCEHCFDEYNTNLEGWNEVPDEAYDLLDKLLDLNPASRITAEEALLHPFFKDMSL", "type": "functional"}, "[20]": {"biological_target": "ALK tyrosine kinase receptor (Homo sapiens, UniProt Q9UM73)", "type": "functional"}, "[21]": {"biological_target": "Sphingosine 1-phosphate receptor 2 (Homo sapiens, UniProt O95136)", "sequence (O95136 whole entry)": "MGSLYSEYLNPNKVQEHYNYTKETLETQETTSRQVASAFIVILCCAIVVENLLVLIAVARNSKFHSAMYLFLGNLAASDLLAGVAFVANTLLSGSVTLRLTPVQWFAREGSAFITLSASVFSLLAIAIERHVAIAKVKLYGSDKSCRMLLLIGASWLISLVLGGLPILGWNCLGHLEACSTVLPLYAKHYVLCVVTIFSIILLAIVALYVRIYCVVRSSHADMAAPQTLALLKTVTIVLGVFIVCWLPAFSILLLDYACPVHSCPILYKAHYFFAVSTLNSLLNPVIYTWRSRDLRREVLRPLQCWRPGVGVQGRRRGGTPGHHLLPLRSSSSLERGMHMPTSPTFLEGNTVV", "test": "S1P2 receptor agonists, human, late-stage follow-up, counter-screen for S1P4 agonist project, cell-based, fluorescence, set 2 (AID 504873)", "type": "functional"}, "[22]": {"biological_target": "Sphingosine 1-phosphate receptor 3 (Homo sapiens, UniProt Q99500)", "sequence (Q99500 whole entry)": "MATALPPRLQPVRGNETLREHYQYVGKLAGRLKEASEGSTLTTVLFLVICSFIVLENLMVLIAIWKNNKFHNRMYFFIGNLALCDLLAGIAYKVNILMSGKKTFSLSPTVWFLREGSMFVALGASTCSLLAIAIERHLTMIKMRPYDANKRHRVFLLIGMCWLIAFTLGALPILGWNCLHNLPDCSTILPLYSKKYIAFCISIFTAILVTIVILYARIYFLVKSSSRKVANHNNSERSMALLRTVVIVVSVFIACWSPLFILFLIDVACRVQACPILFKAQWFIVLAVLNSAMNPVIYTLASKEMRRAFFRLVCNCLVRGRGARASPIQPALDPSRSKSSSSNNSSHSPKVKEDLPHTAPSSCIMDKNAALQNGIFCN", "test": "Late-stage fluorescence-based dose-response cell-based counterscreen assay to identify agonists of the Sphingosine 1-Phosphate Receptor 4 (S1P4): Sphingosine 1-Phosphate Receptor 3 (S1P3) agonist assay Set 2.", "type": "functional"}, "[23]": {"biological_target": "Sphingosine 1-phosphate receptor 5 (Homo sapiens, UniProt Q9H228)", "sequence (Q9H228 whole entry)": "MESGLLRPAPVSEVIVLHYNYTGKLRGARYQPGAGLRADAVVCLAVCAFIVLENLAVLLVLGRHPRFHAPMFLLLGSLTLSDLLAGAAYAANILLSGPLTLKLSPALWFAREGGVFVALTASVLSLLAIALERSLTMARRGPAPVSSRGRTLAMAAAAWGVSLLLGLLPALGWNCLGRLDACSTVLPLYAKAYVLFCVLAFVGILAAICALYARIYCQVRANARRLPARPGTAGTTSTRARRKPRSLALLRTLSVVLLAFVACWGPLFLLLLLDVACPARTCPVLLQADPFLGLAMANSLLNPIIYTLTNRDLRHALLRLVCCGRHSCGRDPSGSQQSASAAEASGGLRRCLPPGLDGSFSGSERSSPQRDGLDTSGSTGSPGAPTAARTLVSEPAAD", "test": "S1P5 receptor agonists, human, late-stage follow-up, counter-screen for S1P4 agonist project, cell-based, fluorescence, set 2 (AID 504867)", "type": "functional"}, "[24]": {"biological_target": "Sphingosine 1-phosphate receptor 1 (Homo sapiens, UniProt P21453)", "sequence (P21453 whole entry)": "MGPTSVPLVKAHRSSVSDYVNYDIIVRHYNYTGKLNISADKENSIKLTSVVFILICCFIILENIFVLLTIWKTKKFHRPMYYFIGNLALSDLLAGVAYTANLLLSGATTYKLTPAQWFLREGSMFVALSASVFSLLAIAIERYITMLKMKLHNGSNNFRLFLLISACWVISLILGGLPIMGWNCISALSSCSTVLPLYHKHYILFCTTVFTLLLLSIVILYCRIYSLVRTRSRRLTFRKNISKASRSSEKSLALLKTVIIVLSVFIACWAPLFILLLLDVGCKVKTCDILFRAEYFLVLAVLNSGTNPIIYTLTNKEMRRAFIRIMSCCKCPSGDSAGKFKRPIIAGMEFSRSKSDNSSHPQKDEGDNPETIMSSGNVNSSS", "test": "Late-stage fluorescence-based dose-response cell-based counterscreen assay to identify agonists of the Sphingosine 1-Phosphate Receptor 4 (S1P4): Sphingosine 1-Phosphate Receptor 1 (S1P1) agonist assay Set 2.", "type": "functional"}, "[25]": {"biological_target": "Protein disulfide-isomerase (Homo sapiens, UniProt P07237)", "sequence (P07237 whole entry)": "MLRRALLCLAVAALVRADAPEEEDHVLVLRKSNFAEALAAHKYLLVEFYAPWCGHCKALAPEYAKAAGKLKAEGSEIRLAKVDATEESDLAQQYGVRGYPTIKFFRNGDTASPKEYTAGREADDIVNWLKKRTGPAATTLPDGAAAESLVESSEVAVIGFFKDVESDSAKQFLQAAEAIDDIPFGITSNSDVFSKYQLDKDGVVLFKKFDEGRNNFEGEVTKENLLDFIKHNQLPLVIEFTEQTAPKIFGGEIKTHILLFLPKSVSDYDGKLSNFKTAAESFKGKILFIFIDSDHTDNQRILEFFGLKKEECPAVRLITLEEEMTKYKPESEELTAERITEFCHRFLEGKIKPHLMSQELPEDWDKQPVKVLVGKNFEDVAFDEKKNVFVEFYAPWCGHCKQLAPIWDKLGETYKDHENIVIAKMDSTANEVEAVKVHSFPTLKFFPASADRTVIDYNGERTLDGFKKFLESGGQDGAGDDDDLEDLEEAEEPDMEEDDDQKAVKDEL", "test": "PDI inhibitors, insulin aggregation turbidity, dose response, biochemical, absorbance, cherry-picked samples (AID 602350)", "type": "functional"}, "[26]": {"test": "P. falciparum Dd2 growth inhibitors, dose response, SYBR Green, cherry-picked samples (AID 1159567)", "type": "functional, cell-based"}},
  "note": "pEC50: −log10 of the molar value. Active and inactive are the calls of the source.",
  "data": [
    {"smiles": "Cc1c(Cl)sn(-c2ccc(Cl)cc2)c1=O", "values": [
      {"measurement": "EC50", "setting": "[1]", "value": "5.19 µM (active)"},
      {"measurement": "IC50", "setting": "[2]", "value": "49.6 µM (active)"},
      {"measurement": "IC50", "setting": "[3]", "value": "19.6 µM (inactive)"},
      {"measurement": "pEC50", "setting": "[4]", "value": "< 4.46"},
      {"measurement": "EC50", "setting": "[5]", "value": "1.4 µM (active)"},
      {"measurement": "IC50", "setting": "[6]", "value": "> 32 µM (inactive)"},
      {"measurement": "IC50", "setting": "[7]", "value": "118 µM (active)"},
      {"measurement": "AC50", "setting": "[8]", "value": "3.85 µM (active)"},
      {"measurement": "AC50", "setting": "[9]", "value": "< 0.195 µM (active)"},
      {"measurement": "AC50", "setting": "[10]", "value": "0.728 µM (active)"},
      {"measurement": "IC50", "setting": "[11]", "value": "> 50 µM (not active)"},
      {"measurement": "pEC50", "setting": "[12]", "value": 5.20},
      {"measurement": "AC50", "setting": "[13]", "value": "19.8 µM (active)"},
      {"measurement": "AC50", "setting": "Escherichia coli [14]", "value": "6.51 µM (active)"},
      {"measurement": "EC50", "setting": "[15]", "value": "> 32 µM (inactive)"},
      {"measurement": "IC50", "setting": "[16]", "value": "2.72 µM (active)"},
      {"measurement": "IC50", "setting": "Melanocortin receptor 4", "value": "3.75 µM (active)"},
      {"measurement": "EC50", "setting": "Mu-type opioid receptor", "value": "> 32 µM (inactive)"},
      {"measurement": "CC50", "setting": "[17]", "value": "9.78 µM (active)"},
      {"measurement": "AC50", "setting": "Escherichia coli [18]", "value": "2.64 µM (active)"}
    ]},
    {"smiles": "O=c1cc(-c2ccccc2)nc(NC2CCCCC2)[nH]1", "values": [
      {"measurement": "Ki", "setting": "[19]", "value": "0.251 µM (active)"},
      {"measurement": "Ki", "setting": "[20]", "value": "> 5.01 µM (inactive)"}
    ]},
    {"smiles": "CC/N=C1/S/C(=C/c2cc(C)n(-c3ccccn3)c2C)C(=O)N1CC", "values": [
      {"measurement": "EC50", "setting": "[21]", "value": "> 25 µM (inactive)"},
      {"measurement": "EC50", "setting": "[22]", "value": "> 25 µM (inactive)"},
      {"measurement": "EC50", "setting": "[23]", "value": "0.72 µM (active)"},
      {"measurement": "EC50", "setting": "[24]", "value": "0.103 µM (active)"}
    ]},
    {"smiles": "C[C@H](CO)N1C[C@H](C)[C@@H](CN(C)S(=O)(=O)c2ccccc2)Oc2ccc(NC(=O)Cc3cn(C)c4ccccc34)cc2C1=O", "values": [
      {"measurement": "AC50", "setting": "[25]", "value": "0.125 µM (active)"},
      {"measurement": "AC50", "setting": "[26]", "value": "4.29 µM (active)"}
    ]}
  ]
}
